Experimental data as given in patent US20250388605A1, “HETEROBIFUNCTIONAL COMPOUNDS AND METHODS OF TREATING DISEASE” (Halda Therapeutics OpCo, Inc., priority 2022, published 2025).

Assays:
BRD4-BD1 = target: T1, BRD4-BD1 (Homo sapiens, UniProt O60885); assay: Binding affinity to BRD4-BD1 (bromoKdELECT assay); conditions: 11-point 3-fold dilution series
T1 construct: made in house; host or cells: T7 phage grown in an E. coli host derived from the BL21 strain

[1] = tested on: T-Rex 293 cell line SC cells lacking increased expression of progesterone receptor isoform B protein; assay: Cellular growth inhibition assay, T-Rex 293 SC cells not exposed to doxycycline (no increased progesterone receptor isoform B expression), CellTiter-Glo; format: cell-based; conditions: T-Rex 293 SC cells without doxycycline (no increased PR isoform B), 72 hours
Protocol: The SC cells were seeded on poly-D-lysine coated, black clear-bottom 384-well plates at 2500/well, in 25 μL Phenol Red Free Dulbecco's Modified Eagle Medium (DMEM) supplemented with 10% w/w charcoal-dextran treated fetal bovine serum (FBS) and 1% w/w pen-strep, with or without 10 ng/mL doxycycline. Pen-Strep is a commercially available mixture of penicillin G and streptomycin, which is used in mammalian cell culture media to prevent bacterial contamination. Phenol Red Free Dulbecco's Modified Eagle Medium (DMEM) supplemented with 10% w/w charcoal-dextran treated fetal bovine serum (FBS) and 1% w/w pen-strep, with or without 10 ng/mL doxycycline is herein referred to as Treatment Medium. Following seeding of cells in the plates, the plates were spun at 300×g for 30 seconds, then equilibrated to room temperature for 30 minutes, and then deposited in a humidified tissue culture incubator maintained at 37° C. with 5% CO2.
At 24 hours after seeding of the cells, dilutions of test compound were prepared in DMSO and dissolved in Treatment Medium, to achieve a final DMSO concentration of 0.5% w/w, thereby providing the Test Compound Solution. A 25 μL aliquot of the Test Compound Solution was added to cells in the well plates. An equal volume of a solution containing DMSO and Treatment Medium was used as a negative control. Following treatment of cells with Test Compound Solution or said equal volume of a solution containing DMSO and Treatment Medium, the plates were spun at 300×g for 30 seconds, and then left in an incubator for 72 hours.
At the end of the treatment duration, cell viability was quantified with CellTiter-Glo 2.0 reagent (Promega Cat #G9243). For this purpose, plates were equilibrated to room temperature for 30 minutes, and then 25 μL of CellTiter-Glo 2.0 reagent was added to cells in the plate wells. Plates were then agitated on a shaker for two minutes at 500 rpm and subsequently incubated at room temperature for 10 minutes. Following incubation, the plates were spun at 3000×g for 30 seconds, then sealed with an optical adhesive cover, and luminescence readings were measured with an EnVision Plate Reader (Perkin Elmer).
Data was normalized using zero luminescence for baseline. A four-parameter non-linear regression curve fit was applied to dose-response data in GraphPad Prism data analysis software to determine the half-maximal growth inhibitory concentration (GI50) for each test compound.

T47D cells = assay: Cellular Growth Inhibition Assay for T47D Cells (CellTiter-Glo); format: cell-based, human; conditions: 72 hours
In short: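 GI50 values derive from four-parameter regression of CellTiter-Glo 2.0 luminescence, using zero luminescence as baseline. Human breast cancer T47D cells (3000/well; DMEM, 10% FBS, 0.2 units/mL insulin) were exposed for 72 h to compound dilutions at 0.5% DMSO, with dosing starting 24 h after seeding.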

| SMILES | Kd (BRD4-BD1) | GI50 (T47D cells; Homo sapiens) | GI50 (T47D cells) | GI50 [1] |
| --- | --- | --- | --- | --- |
| CCS(=O)(=O)Nc1ccc(Oc2cccc(OCCN(C)c3ncc(C(=O)N[C@H]4C(C)(C)[C@H](Oc5ccc(C#N)c(Cl)c5)C4(C)C)cn3)c2)c(-c2cn(C)c(=O)c3[nH]ccc23)c1 [Compound I-1, N-((1r, 3r)-3-(3-chloro-4-cyanophenoxy)-2,2,4,4-tetramethylcyclobutyl)-2-((2-(3-(4-(ethylsulfonamido)-2-(6-methyl-7-oxo-6,7-dihydro-1H-pyrrolo[2,3-c]pyridin-4-yl)phenoxy)phenoxy)ethyl)(methyl)amino)pyrimidine-5-carboxamide] | 50 to 500 nM |  |  | < 500 nM |
| CCS(=O)(=O)Nc1ccc(Oc2cccc(OCCOCCOCCOCCOCCN(C)c3ncc(C(=O)N[C@H]4C(C)(C)[C@H](Oc5ccc(C#N)c(Cl)c5)C4(C)C)cn3)c2)c(-c2cn(C)c(=O)c3[nH]ccc23)c1 [Compound I-3] | < 50 nM |  |  | 500 to 1500 nM |
| CCS(=O)(=O)Nc1ccc(Oc2cccc(OCCOC3CCN(c4ncc(C(=O)N[C@H]5C(C)(C)[C@H](Oc6ccc(C#N)c(Cl)c6)C5(C)C)cn4)CC3)c2)c(-c2cn(C)c(=O)c3[nH]ccc23)c1 [Compound I-6] | > 2500 nM | < 500 nM |  | < 500 nM |
| CCS(=O)(=O)Nc1ccc(Oc2cccc(OCCOCCOCCOC3CCN(c4ncc(C(=O)N[C@H]5C(C)(C)[C@H](Oc6ccc(C#N)c(Cl)c6)C5(C)C)cn4)CC3)c2)c(-c2cn(C)c(=O)c3[nH]ccc23)c1 [Compound I-7] | 500 to 2500 nM | < 500 nM |  | < 500 nM |
| CCS(=O)(=O)Nc1ccc(Oc2cccc(COC3CCN(c4ncc(C(=O)N[C@H]5C(C)(C)[C@H](Oc6ccc(C#N)c(Cl)c6)C5(C)C)cn4)CC3)c2)c(-c2cn(C)c(=O)c3[nH]ccc23)c1 [Compound I-18, N-((1r, 3r)-3-(3-chloro-4-cyanophenoxy)-2,2,4,4-tetramethylcyclobutyl)-2-(4-((3-(4-(ethylsulfonamido)-2-(6-methyl-7-oxo-6,7-dihydro-1H-pyrrolo[2,3-c]pyridin-4-yl)phenoxy)benzyl)oxy)piperidin-1-yl)pyrimidine-5-carboxamide] | 500 to 2500 nM | < 500 nM |  | < 500 nM |
| CCS(=O)(=O)Nc1ccc(Oc2cccc(N3CC4(CN(CC5CCN(c6ncc(C(=O)N[C@H]7C(C)(C)[C@H](Oc8ccc(C#N)c(Cl)c8)C7(C)C)cn6)CC5)C4)C3)c2)c(-c2cn(C)c(=O)c3[nH]ccc23)c1 [Compound I-35, N-((1r, 3r)-3-(3-chloro-4-cyanophenoxy)-2,2,4,4-tetramethylcyclobutyl)-2-(4-((6-(3-(4-(ethylsulfonamido)-2-(6-methyl-7-oxo-6,7-dihydro-1H-pyrrolo[2,3-c]pyridin-4-yl)phenoxy)phenyl)-2,6-diazaspiro[3.3]heptan-2-yl)methyl)piperidin-1-yl)pyrimidine-5-carboxamide] |  | < 500 nM |  | > 3000 nM |
| CCS(=O)(=O)Nc1ccc(Oc2cccc(OC3CCC4(CC3)CCN(c3ncc(C(=O)N[C@H]5C(C)(C)[C@H](Oc6ccc(C#N)c(Cl)c6)C5(C)C)cn3)CC4)c2)c(-c2cn(C)c(=O)c3[nH]ccc23)c1 [Compound I-45] |  | < 500 nM |  | > 3000 nM |
| CCS(=O)(=O)Nc1ccc(Oc2ccc(F)c(OCCOC3CCN(c4ncc(C(=O)N[C@H]5C(C)(C)[C@H](Oc6ccc(C#N)c(Cl)c6)C5(C)C)cn4)CC3)c2F)c(-c2cn(C)c(=O)c3[nH]ccc23)c1 [Compound I-65] | 500 to 2500 nM | < 500 nM |  | < 500 nM |
| CCS(=O)(=O)Nc1ccc(Oc2cccc(OCCOC3CCN(c4ccc(C(=O)N[C@H]5C(C)(C)[C@H](Oc6ccc(C#N)c(Cl)c6)C5(C)C)cn4)CC3)c2)c(-c2cn(C)c(=O)c3[nH]ccc23)c1 [Compound I-70, N-((1r, 3r)-3-(3-chloro-4-cyanophenoxy)-2,2,4,4-tetramethylcyclobutyl)-6-(4-(2-(3-(4-(ethylsulfonamido)-2-(6-methyl-7-oxo-6,7-dihydro-1H-pyrrolo[2,3-c]pyridin-4-yl)phenoxy)phenoxy)ethoxy)piperidin-1-yl)nicotinamide] |  | < 500 nM |  | < 500 nM |
| CCS(=O)(=O)Nc1ccc(Oc2cccc(OCCOC3CCN(c4cnc(C(=O)N[C@H]5C(C)(C)[C@H](Oc6ccc(C#N)c(Cl)c6)C5(C)C)cn4)CC3)c2)c(-c2cn(C)c(=O)c3[nH]ccc23)c1 [Compound I-71, N-((1r, 3r)-3-(3-chloro-4-cyanophenoxy)-2,2,4,4-tetramethylcyclobutyl)-5-(4-(2-(3-(4-(ethylsulfonamido)-2-(6-methyl-7-oxo-6,7-dihydro-1H-pyrrolo[2,3-c]pyridin-4-yl)phenoxy)phenoxy)ethoxy)piperidin-1-yl)pyrazine-2-carboxamide] |  | < 500 nM |  | < 500 nM |
| CCS(=O)(=O)Nc1ccc(Oc2cccc(OC3CC(C4CCN(c5ncc(C(=O)N[C@H]6C(C)(C)[C@H](Oc7ccc(C#N)c(Cl)c7)C6(C)C)cn5)CC4)C3)c2)c(-c2cn(C)c(=O)c3[nH]ccc23)c1 (some centres unmarked) [Compound I-104] |  |  | < 500 nM | > 3000 nM |

The next lines start with results.

| Kd (BRD4-BD1) | GI50 (T47D cells; Homo sapiens) | GI50 (T47D cells) | SMILES | GI50 [1] |
| --- | --- | --- | --- | --- |
|  | < 500 nM |  | Cn1cc(-c2cc(C(C)(C)O)ccc2Oc2ccc(CC3CCN(c4ncc(C(=O)N[C@H]5C(C)(C)[C@H](Oc6ccc(C#N)c(Cl)c6)C5(C)C)cn4)CC3)cc2)c2cc[nH]c2c1=O [Compound I-201] | 500 to 1500 nM |
|  | 500 to 1500 nM |  | Cn1cc(-c2cc(C(C)(C)O)ccc2Oc2ccc(OCC3CCN(c4ncc(C(=O)N[C@H]5C(C)(C)[C@H](Oc6ccc(C#N)c(Cl)c6)C5(C)C)cn4)CC3)cc2)c2cc[nH]c2c1=O [Compound I-202] | 500 to 1500 nM |
|  | < 500 nM |  | Cn1cc(-c2cc(C(C)(C)O)ccc2Oc2ccc(OCCN3CCN(c4ncc(C(=O)N[C@H]5C(C)(C)[C@H](Oc6ccc(C#N)c(Cl)c6)C5(C)C)cn4)CC3)cc2)c2cc[nH]c2c1=O [Compound I-204] | 500 to 1500 nM |
|  | < 500 nM |  | CN(C1CCN(c2ncc(C(=O)N[C@H]3C(C)(C)[C@H](Oc4ccc(C#N)c(Cl)c4)C3(C)C)cn2)CC1)C1CN(c2ccc(Oc3ccc(C(C)(C)O)cc3-c3cn(C)c(=O)c4[nH]ccc34)cc2)C1 [Compound I-208] | < 500 nM |
|  | < 500 nM |  | Cn1cc(-c2cc(C(C)(C)O)ccc2Oc2ccc(N3CC(OC4CCN(c5ncc(C(=O)N[C@H]6C(C)(C)[C@H](Oc7ccc(C#N)c(Cl)c7)C6(C)C)cn5)CC4)C3)cc2)c2cc[nH]c2c1=O [Compound I-219] | > 3000 nM |
|  | < 500 nM |  | CCS(=O)(=O)c1ccc(Oc2ccc(OCC3CCN(c4ncc5c(n4)CN([C@H]4C(C)(C)[C@H](Cc6ccc(C#N)c(Cl)c6)C4(C)C)C5=O)CC3)cc2)c(-c2cn(C)c(=O)c3[nH]ccc23)c1 [Compound I-220] | < 500 nM |
|  | 500 to 1500 nM |  | CC(C)N(C1CCN(c2ncc(C(=O)N[C@H]3C(C)(C)[C@H](Oc4ccc(C#N)c(Cl)c4)C3(C)C)cn2)CC1)C1CN(c2cccc(Oc3ccc(C(C)(C)O)cc3-c3cn(C)c(=O)c4[nH]ccc34)c2F)C1 [Compound I-221] | 1500 to 3000 nM |
|  | < 500 nM |  | Cn1cc(-c2cc(C(C)(C)O)ccc2Oc2ccc(N3CC(CC4CCN(c5ncc(C(=O)N[C@H]6C(C)(C)[C@H](Oc7ccc(C#N)c(Cl)c7)C6(C)C)cn5)CC4)C3)cc2)c2cc[nH]c2c1=O [Compound I-232] | 500 to 1500 nM |
|  |  | < 500 nM | CN(C1CN(c2ccc(Oc3ccc(C(C)(C)O)cc3-c3cn(C)c(=O)c4[nH]ccc34)cc2)C1)C1CN(c2ncc(C(=O)N[C@H]3C(C)(C)[C@H](Oc4ccc(C#N)c(Cl)c4)C3(C)C)cn2)C1 [Compound I-238] | < 500 nM |
|  |  | < 500 nM | CN(CC1CCN(c2ncc(C(=O)N[C@H]3C(C)(C)[C@H](Oc4ccc(C#N)c(Cl)c4)C3(C)C)cn2)CC1)C1(c2ccc(Oc3ccc(C(C)(C)O)cc3-c3cn(C)c(=O)c4[nH]ccc34)cc2)COC1 [Compound I-255] | 1500 to 3000 nM |
|  | < 500 nM |  | Cn1cc(-c2cc(C(C)(C)O)ccc2Oc2ccc(CCCC3CC4(C3)CN(c3ncc(C(=O)N[C@H]5C(C)(C)[C@H](Oc6ccc(C#N)c(Cl)c6)C5(C)C)cn3)C4)cc2)c2cc[nH]c2c1=O [Compound I-268] | < 500 nM |
|  | < 500 nM |  | Cn1cc(-c2cc(C(C)(C)O)ccc2Oc2ccc(N3CC(CC4CN(c5ncc(C(=O)N[C@H]6C(C)(C)[C@H](Oc7ccc(C#N)c(Cl)c7)C6(C)C)cn5)C4)C3)cc2)c2cc[nH]c2c1=O [Compound I-280] | < 500 nM |
